Drawing on US7238701B2, “Substituted tetrahydrobenzothienopyrimidinamine compounds useful for treating hyper-proliferative disorders” (Bayer Pharmaceuticals Corporation, priority 2003, dated 2007), this text covers IC50 for 23 molecules.

For test [1], the system named is BT474 (human breast carcinoma). The test can be described thus: In vitro tumor cell proliferation assay (Cell Titer-Glo luminescent cell viability), BT474 cells. The class given is cell-based. To be noted: BT-474, 72 hours drug exposure, 10% Fetal Bovine Serum, ATP luminescence readout, read-out: IC50 (50% inhibition of cell proliferation). The text has this:
(§1) In vitro Tumor Cell Proliferation Assay
(§2) The tumor cell proliferation assay used to test the compounds of the present invention involves a readout called Cell Titer-Glow® Luminescent Cell Viability Assay developed by Promega (Cunningham, B A “A Growing Issue: Cell Proliferation Assays, Modern kits ease quantification of cell growth” The Scientist 2001, 15(13), 26, and Crouch, S P et al., “The use of ATP bioluminescence as a measure of cell proliferation and cytotoxicity” Journal of Immunological Methods 1993, 160, 81–88), that measures inhibition of cell proliferation. Generation of a luminescent signal corresponds to the amount of ATP present, which is directly proportional to the number of metabolically active (proliferating) cells.
(§3) A431cells (human epidermoid carcinoma, ATCC # HTB-20) and BT474 (human breast carcinoma, ATCC # CRL-1555) were plated at a density of 2.5×10^3 cells/well in 96 well black-clear bottom tissue culture plates in RPMI media with 10% Fetal Bovine Serum and incubated at 37° C. Twenty-four hours later, test compounds are added at a final concentration range from as high 100 μM to as low 64 pM depend on the activities of the tested compounds in serial dilutions at a final DMSO concentration of 0.1%. Cells were incubated for 72 hours at 37° C. in complete growth media after addition of the test compound. After 72 hours of drug exposure, the plates were equilibrated to room temperature for approximately 30 min. Then, using a Promega Cell Titer Glo Luminescent® assay kit, lysis buffer containing 100 microliters of the enzyme luciferase and its substrate, luciferin mixture, was added to each well. The plates were mixed for 2 min on orbital shaker to ensure cell lysis and incubated for 10 min at room temperature to stabilize luminescence signal. The samples were read on VICTOR 2 using Luminescence protocol, and analyzed with Analyze5 software to generate IC50 values.

The test system of test [2] is A431cells (human epidermoid carcinoma). The test can be described thus: In vitro tumor cell proliferation assay (Cell Titer-Glo luminescent cell viability), A431 cells. It counts as cell-based. To be noted: A-431, 72 h, 72 hours drug exposure, 10% Fetal Bovine Serum, ATP luminescence readout, read-out: IC50 (50% inhibition of cell proliferation).
Text: as §1, §2, §3
(In general: In ATP-based viability assays light output follows the ATP content of the culture.)

Bounds are passed on as bounds.

Regarding `Fc1ccc(Nc2ncnc3sc4c(c23)CCC(CCN2CCOCC2)C4)cc1Cl` (stereo not shown) [Example 54, N-(3-chloro-4-fluorophenyl)-7-[2-(4-morpholinyl)ethyl]-5,6,7,8-tetrahydro[1]benzothieno[2,3-d]pyrimidin-4-amine], the IC50 in test [1] and in test [2] was less than 5 µM in each case.

Turning to `CS(=O)(=O)CCNCC1CCc2c(sc3ncnc(Nc4ccc(F)c(Cl)c4)c23)C1` (stereo not shown) [Example 55, N-(3-chloro-4-fluorophenyl)-7-({[2-(methylsulfonyl)ethyl]amino}methyl)-5,6,7,8-tetrahydro[1]benzothieno[2,3-d]pyrimidin-4-amine], the values for the IC50 in test [1] and in test [2] were less than 50 µM and less than 5 µM, respectively.

As for `C=CCNC(=O)C1CCc2c(sc3ncnc(Nc4cccc(Br)c4)c23)C1` (stereo not shown) [Example 56, N-allyl-4-[(3-bromophenyl)amino]-5,6,7,8-tetrahydro[1]benzothieno[2,3-d]pyrimidine-7-carboxamide], the IC50 in test [1] and in test [2] was less than 50 µM throughout.

Turning to `CCOC(=O)CC1CCc2c(sc3ncnc(Nc4ccc(F)c(Cl)c4)c23)C1` (stereo not shown) [Example 57, ethyl {4-[(3-chloro-4-fluorophenyl)amino]-5,6,7,8-tetrahydro[1]benzothieno[2,3-d]pyrimidin-7-yl}acetate], the IC50 in test [1] and in test [2] was less than 50 µM in each case.

With `CN1CCN(C(=O)CC2CCc3c(sc4ncnc(Nc5ccc(F)c(Cl)c5)c34)C2)CC1` (stereo not shown) [Example 58, N-(3-chloro-4-fluorophenyl)-7-[2-(4-methyl-1-piperazinyl)-2-oxoethyl]-5,6,7,8-tetrahydro[1]benzothieno[2,3-d]pyrimidin-4-amine], the IC50 in test [1] and in test [2] was less than 5 µM in each case.

Take `CN1CCN(CCC2CCc3c(sc4ncnc(Nc5ccc(F)c(Cl)c5)c34)C2)CC1` (stereo not shown) [Example 59, N-(3-chloro-4-fluorophenyl)-7-[2-(4-methyl-1-piperazinyl)ethyl]-5,6,7,8-tetrahydro[1]benzothieno[2,3-d]pyrimidin-4-amine]: the IC50 in test [1] and in test [2] was less than 5 µM throughout.

Turning to `CN(C)[C@@H]1CCN(C(=O)C2CCc3c(sc4ncnc(Nc5cccc(Br)c5)c34)C2)C1` (stereo partly drawn) [Example 60, N-(3-bromophenyl)-7-{[(3R)-3-(dimethylamino)-1-pyrrolidinyl]carbonyl}-5,6,7,8-tetrahydro[1]benzothieno[2,3-d]pyrimidin-4-amine], the IC50 in test [1] and in test [2] was less than 5 µM each time.

`O=C(CC1CCc2c(sc3ncnc(Nc4ccc(F)c(Cl)c4)c23)C1)N1CCOCC1` (stereo not shown) [Example 61, N-(3-chloro-4-fluorophenyl)-7-[2-(4-morpholinyl)-2-oxoethyl]-5,6,7,8-tetrahydro[1]benzothieno[2,3-d]pyrimidin-4-amine]: the IC50 in test [1] is less than 50 µM; in test [2] it was less than 5 µM.

On to `COCCNC(=O)CC1CCc2c(sc3ncnc(Nc4ccc(F)c(Cl)c4)c23)C1` (stereo not shown) [Example 62, 2-{4-[(3-chloro-4-fluorophenyl)amino]-5,6,7,8-tetrahydro[1]benzothieno[2,3-d]pyrimidin-7-yl}-N-(2-methoxyethyl)acetamide], for which the IC50 in test [1] and in test [2] was less than 5 µM each time.

On to `CCOC(=O)CC1CCc2c(sc3ncnc(Nc4cccc(Br)c4)c23)C1` (stereo not shown) [Example 63, ethyl {4-[(3-bromophenyl)amino]-5,6,7,8-tetrahydro[1]benzothieno[2,3-d]pyrimidin-7-yl}acetate], for which the IC50 in test [1] and in test [2] was less than 50 µM throughout.

Consider `OCCC1CCc2c(sc3ncnc(Nc4ccc(F)c(Cl)c4)c23)C1` (stereo not shown) [Example 64, 2-{4-[(3-chloro-4-fluorophenyl)amino]-5,6,7,8-tetrahydro[1]benzothieno[2,3-d]pyrimidin-7-yl}ethanol], for which the IC50 in test [1] and in test [2] was less than 50 µM throughout.

For the molecule `O=C(O)CC1CCc2c(sc3ncnc(Nc4cccc(Br)c4)c23)C1` (stereo not shown) [Example 65, {4-[(3-bromophenyl)amino]-5,6,7,8tetrahydro[1]benzothieno[2,3-d]pyrimidin-7-yl}acetic acid], the IC50 in test [1] and in test [2] was less than 50 µM each time.

For the molecule `CN(C)[C@@H]1CCN(CC2CCc3c(sc4ncnc(Nc5cccc(Br)c5)c34)C2)C1` (stereo partly drawn) [Example 66, N-(3-bromophenyl)-7-{[(3R)-3-(dimethylamino)-1-pyrrolidinyl]methyl}-5,6,7,8-tetrahydro[1]benzothieno[2,3-d]pyrimidin-4-amine], the IC50 in test [1] and in test [2] was less than 5 µM each time.

Take `O=C(CC1CCc2c(sc3ncnc(Nc4ccc(F)c(Cl)c4)c23)C1)N1CCCCC1` (stereo not shown) [Example 67, N-(3-chloro-4-fluorophenyl)-7-[2-oxo-2-(1-piperidinyl)ethyl]-5,6,7,8-tetrahydro[1]benzothieno[2,3-d]pyrimidin-4-amine]: the IC50 in test [1] was less than 5 µM; in test [2], less than 50 µM.

Turning to `CN1CCN(C(=O)CC2CCc3c(sc4ncnc(Nc5cccc(Br)c5)c34)C2)CC1` (stereo not shown) [Example 68, N-(3-bromophenyl)-7-[2-(4-methyl-1-piperazinyl)-2-oxoethyl]-5,6,7,8-tetrahydro[1]benzothieno[2,3-d]pyrimidin-4-amine], the IC50 in test [1] and in test [2] was less than 50 µM each time.

Consider `O=C(CC1CCc2c(sc3ncnc(Nc4cccc(Br)c4)c23)C1)NCCN1CCOCC1` (stereo not shown) [Example 69], for which the IC50 in test [1] and in test [2] was less than 50 µM throughout.

For the molecule `O=C(CC1CCc2c(sc3ncnc(Nc4cccc(Br)c4)c23)C1)N1CCOCC1` (stereo not shown) [Example 70], the values for the IC50 in test [1] and in test [2] were less than 50 µM and less than 5 µM, respectively.

With `O=C(CC1CCc2c(sc3ncnc(Nc4cccc(Br)c4)c23)C1)N1CCCCC1` (stereo not shown) [Example 71, N-(3-bromophenyl)-7-[2-oxo-2-(1-piperidinyl)ethyl]-5,6,7,8-tetrahydro[1]benzothieno[2,3-d]pyrimidin-4-amine], the IC50 in test [1] and in test [2] was less than 50 µM in each case.

On to `O=C(O)CC1CCc2c(sc3ncnc(Nc4ccc(F)c(Cl)c4)c23)C1` (stereo not shown) [Example 72], for which the IC50 in test [1] is less than 50 µM; in test [2] it was less than 5 µM.

As for `Fc1ccc(Nc2ncnc3sc4c(c23)CCC(CCN2CCCCC2)C4)cc1Cl` (stereo not shown) [Example 73, N-(3-chloro-4-fluorophenyl)-7-[2-(1-piperidinyl)ethyl]-5,6,7,8-tetrahydro[1]benzothieno[2,3-d]pyrimidin-4-amine], the IC50 in test [1] and in test [2] was less than 5 µM in each case.

As for `Fc1ccc(Nc2ncnc3sc4c(c23)CCC(CCN2CCCC2)C4)cc1Cl` (stereo not shown) [Example 74, N-(3-chloro-4-fluorophenyl)-7-[2-(1-pyrrolidinyl)ethyl]-5,6,7,8-tetrahydro[1]benzothieno[2,3-d]pyrimidin-4-amine], the IC50 in test [1] and in test [2] was less than 5 µM each time.

Consider `COCCNCCC1CCc2c(sc3ncnc(Nc4ccc(F)c(Cl)c4)c23)C1` (stereo not shown) [Example 75, N-(3-chloro-4-fluorophenyl)-7-{2-[(2-methoxyethyl)amino]ethyl}-5,6,7,8-tetrahydro[1]benzothieno[2,3-d]pyrimidin-4-amine], for which the IC50 in test [1] and in test [2] was less than 5 µM throughout.

Consider `COc1ccc(NCCC2CCc3c(sc4ncnc(Nc5ccc(F)c(Cl)c5)c34)C2)cc1` (stereo not shown) [Example 76, N-(3-chloro-4-fluorophenyl)-7-{2-[(4-methoxyphenyl)amino]ethyl}-5,6,7,8-tetrahydro[1]benzothieno[2,3-d]pyrimidin-4-amine], for which the IC50 in test [1] and in test [2] was less than 50 µM throughout.
